According to patent US20080248511A1, “METHODS TO QUENCH LIGHT FROM OPTICAL REACTIONS” (priority 2007, published 2008):
Where two headings read alike, the source gives them in different places.

Tests used:
Assay type in all cases: biochemical
firefly luciferase [1] = target: T1, firefly luciferase (Photinus pyralis, UniProt P08659); experiment: Detergent screen with Tergitol NP-9, firefly luciferase (Example 3); conditions: 0.06% quencher in reagent solution; 0.5% Tergitol NP-9
Experimental: (§1) Unless otherwise specified, materials were obtained from Sigma-Aldrich.
(§2) The firefly luciferase and Renilla luciferase enzymes were diluted as follows. Firefly luciferase was diluted to 14 ng/ml in Delbecco's Minimal Essential (DMEM) medium (Gibco/Invitrogen) containing 0.1% Prionex®. Renilla luciferase was diluted to 10 ng/ml in DMEM medium containing 0.1% Prionex®.
(§3) The luciferase reactions were initiated by adding 50 μl of the firefly luciferase or Renilla luciferase enzyme solution to 50 μl of reagent solution. The reactions were performed as described above. The retained firefly luciferase and Renilla luciferase luminescence as well as the selectivity values for each quencher were calculated (Table 3). The values listed are based on 0.06% quencher in the reagent solution.

Renilla luciferase [2] = target: T2, Renilla luciferase (Renilla reniformis, UniProt P27652); experiment: Detergent screen with Tergitol NP-9, Renilla luciferase (Example 3)
T2 sequence (P27652 1-311): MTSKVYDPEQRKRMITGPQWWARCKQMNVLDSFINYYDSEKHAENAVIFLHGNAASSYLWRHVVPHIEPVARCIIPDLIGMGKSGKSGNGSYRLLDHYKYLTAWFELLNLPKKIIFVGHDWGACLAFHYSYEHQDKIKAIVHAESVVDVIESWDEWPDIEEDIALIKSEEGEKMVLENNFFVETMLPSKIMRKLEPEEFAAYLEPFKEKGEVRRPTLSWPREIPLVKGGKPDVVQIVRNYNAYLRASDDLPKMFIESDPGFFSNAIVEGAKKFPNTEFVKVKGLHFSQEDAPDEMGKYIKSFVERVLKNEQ
Experimental: as §1, §2, §3

Renilla luciferase [3] = target: T2, Renilla luciferase; experiment: Detergent titration with Tergitol NP-9, digitonin or no lysing agent, Renilla luciferase (Example 4); conditions: for remaining activity at 0.0005 % / remaining activity at 0.005 % / remaining activity at 0.05 %: read-out: Relative Renilla Luc Intensity
Experimental: Renilla luciferase-mediated luminescence was measured from samples containing 9.6 mM phosphate buffer pH 6.8, 2.7 mM KCl, 137 mM NaCl (in PBS), 0.1% gelatin, 75 nM coelentrazine (Promega) and 10.2 ng/ml Renilla luciferase. Reactions contained either no lysing agent, 0.5% Tergitol NP-9 or 20 μg/ml digitonin. The detergents to be tested were titrated to 0.05%, 0.005% or 0.0005% in the reactions prior to the addition of the Renilla luciferase. Renilla luciferase-mediated luminescence was measured as described herein.

firefly luciferase [4] = target: T1, firefly luciferase; experiment: Detergent titration with Tergitol NP-9, digitonin or no lysing agent, firefly luciferase (Example 4); conditions: read-out: Relative Firefly Luc Intensity; for remaining activity at 0.0005 %: 0.0005% detergent; for remaining activity at 0.005 %: 0.0050% detergent; for remaining activity at 0.05 %: 0.0500% detergent
Experimental: For measurement of firefly luciferase-mediated luminescence, a solution containing 110 mM HEPES pH 7.5, 8 mM MgSO4, 0.05% gelatin, 7.35 ng/ml firefly luciferase (QuantiLum® Luciferase; Promega) and the content of the Steady-Glo Luciferase Substrate (Promega) at the equivalent of 1×, As in the Renilla luciferase reactions, reactions contained either no lysing agent, 0.5% Tergitol NP-9 or 20 μg/ml digitonin. The same detergents were titrated as described above and firefly luciferase-mediated luminescence was measured.

firefly luciferase [5] = target: T1, firefly luciferase; experiment: Quaternary ammonium/phosphonium detergent screen, firefly luciferase (Example 5); conditions: final conc. 0.10% detergent; Tergitol NP-9 present; read-out: Retained Firefly Luciferase Luminescence (%)
Experimental: (§4) Each detergent was added at 0.2% to a reagent solution containing 50 mM Tricine pH 8.3, 3.5 mM MgSO4, 1 mM CDTA, 30 mM thiourea and 0.5% Tergitol NP-9. This solution or one not containing a detergent inhibitor was used to resuspend the Bright-Glo™ luciferin substrate (Promega).
(§5) The luciferase reactions were initiated by adding 100 μl of the firefly luciferase or Renilla luciferase enzyme solutions to 100 μl of reagent solution. The reactions were performed as described above. […] The detergent concentrations listed refer to the final concentration in the reaction.

Renilla luciferase [6] = target: T2, Renilla luciferase; experiment: Quaternary ammonium/phosphonium detergent screen, Renilla luciferase (Example 5); conditions: final conc. 0.10% detergent
Experimental: as §4, §5

firefly luciferase [7] = target: T1, firefly luciferase; experiment: Quaternary ammonium/phosphonium detergent screen, firefly luciferase (Example 5); conditions: final conc. 0.03% detergent; Tergitol NP-9 present; read-out: Retained Firefly Luciferase Luminescence (%)
Renilla luciferase [8] = target: T2, Renilla luciferase; experiment: Quaternary ammonium/phosphonium detergent screen, Renilla luciferase (Example 5); conditions: final conc. 0.03% detergent
[9] = Tergitol NP-9 present, read-out: Retained Renilla Luciferase Luminescence (%)

T1 sequence (P08659 whole entry): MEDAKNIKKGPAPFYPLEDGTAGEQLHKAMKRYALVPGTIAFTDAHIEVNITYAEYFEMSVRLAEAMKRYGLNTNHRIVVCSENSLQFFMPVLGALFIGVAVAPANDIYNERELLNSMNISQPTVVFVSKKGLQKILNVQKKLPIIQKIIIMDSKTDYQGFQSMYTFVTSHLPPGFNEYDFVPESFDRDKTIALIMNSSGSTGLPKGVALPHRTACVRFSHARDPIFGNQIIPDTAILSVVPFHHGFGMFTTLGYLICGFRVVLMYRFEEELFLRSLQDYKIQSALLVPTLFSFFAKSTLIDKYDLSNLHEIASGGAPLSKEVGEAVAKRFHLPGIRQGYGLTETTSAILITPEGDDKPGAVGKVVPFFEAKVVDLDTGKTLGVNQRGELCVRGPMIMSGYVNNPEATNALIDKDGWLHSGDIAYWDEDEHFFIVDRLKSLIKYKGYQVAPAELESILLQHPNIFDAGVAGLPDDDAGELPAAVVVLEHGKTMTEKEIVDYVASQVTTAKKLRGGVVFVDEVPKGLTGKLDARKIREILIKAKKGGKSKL

Compound: CCCCCCCCCCCC[N+](C)(C)Cc1ccccc1.[Br-] [Benzyldimethyldodecylammonium bromide]
- Retained Firefly Luminescence (%) (firefly luciferase [1]): 119%
- Retained Renilla Luminescence (%) (Renilla luciferase [2]; 0.06% quencher in reagent solution, 0.5% Tergitol NP-9): 22%
- lowering of selectivity value relative to the screen without Tergitol NP-9 (Renilla luciferase [2]; Tergitol NP-9 in the reagent solution): about 50 fold
- Selectivity Value (Renilla luciferase [2]; retained firefly / retained Renilla, 0.06% quencher, 0.5% Tergitol NP-9): 5.4
- Selective Inhibition (Ff Luc Inh/Ren Luc Inh) (Renilla luciferase [3]; 0.0005% detergent, Dig): 1.8
- remaining activity at 0.0005 % (Renilla luciferase [3]; 0.0005% detergent, Dig): 61%
- Selective Inhibition (Ff Luc Inh/Ren Luc Inh) (Renilla luciferase [3]; 0.0005% detergent, Terg): 1.1
- remaining activity at 0.0005 % (Renilla luciferase [3]; 0.0005% detergent, Terg): 90%
- Selective Inhibition (Ff Luc Inh/Ren Luc Inh) (Renilla luciferase [3]; 0.0005% detergent, Water): 2.2
- remaining activity at 0.0005 % (Renilla luciferase [3]; 0.0005% detergent, Water): 54%
- Selective Inhibition (Ff Luc Inh/Ren Luc Inh) (Renilla luciferase [3]; 0.0050% detergent, Dig): 29
- remaining activity at 0.005 % (Renilla luciferase [3]; 0.0050% detergent, Dig): 5%
- Selective Inhibition (Ff Luc Inh/Ren Luc Inh) (Renilla luciferase [3]; 0.0050% detergent, Terg): 1.7
- remaining activity at 0.005 % (Renilla luciferase [3]; 0.0050% detergent, Terg): 58%
- Selective Inhibition (Ff Luc Inh/Ren Luc Inh) (Renilla luciferase [3]; 0.0050% detergent, Water): 36
- remaining activity at 0.005 % (Renilla luciferase [3]; 0.0050% detergent, Water): 4%
- remaining activity at 0.05 % (Renilla luciferase [3]; 0.0500% (w:v) detergent, Terg (0.5% Tergitol NP-9)): 2%
- Selective Inhibition (Ff Luc Inh/Ren Luc Inh) (Renilla luciferase [3]; 0.0500% detergent, Dig): 1575
- remaining activity at 0.05 % (Renilla luciferase [3]; 0.0500% detergent, Dig (20 μg/ml digitonin)): 0.02%
- Selective Inhibition (Ff Luc Inh/Ren Luc Inh) (Renilla luciferase [3]; 0.0500% detergent, Terg): 21
- Selective Inhibition (Ff Luc Inh/Ren Luc Inh) (Renilla luciferase [3]; 0.0500% detergent, Water): 3627
- remaining activity at 0.05 % (Renilla luciferase [3]; 0.0500% detergent, Water (no lysing agent)): 0.02%
- remaining activity at 0.0005 % (firefly luciferase [4]; Dig): 111%
- remaining activity at 0.0005 % (firefly luciferase [4]; Terg): 96%
- remaining activity at 0.0005 % (firefly luciferase [4]; Water): 116%
- remaining activity at 0.005 % (firefly luciferase [4]; Dig): 139%
- remaining activity at 0.005 % (firefly luciferase [4]; Terg): 101%
- remaining activity at 0.005 % (firefly luciferase [4]; Water): 155%
- remaining activity at 0.05 % (firefly luciferase [4]; Dig (20 μg/ml digitonin)): 37%
- remaining activity at 0.05 % (firefly luciferase [4]; Terg (0.5% Tergitol NP-9)): 50%
- remaining activity at 0.05 % (firefly luciferase [4]; Water (no lysing agent)): 79%
- remaining activity at 0.1 % (firefly luciferase [5]): 97%
- Selectivity Value (Renilla luciferase [6]): 48.5
- remaining activity at 0.1 % (Renilla luciferase [6]; [9]): 2%
- remaining activity at 0.03 % (firefly luciferase [7]): 100%
- Selectivity Value (Renilla luciferase [8]): 4
- remaining activity at 0.03 % (Renilla luciferase [8]; [9]): 25%
